Source: patent publication US20220167618A1, “PESTICIDALLY ACTIVE AZOLE-AMIDE COMPOUNDS” (SYNGENTA CROP PROTECTION AG, priority 2019, published 2022)

Legend:
Assay type in all cases: in vivo
[1] = test system: Diabrotica balteata (Corn Root Worm); assay: Example B1: Diabrotica balteata (corn root worm), sprayed maize sprouts; details: 96 h, application rate 200 ppm, L2 larvae, 4 days after infestation, read-out: control in at least one of the two categories (mortality or growth inhibition)
Experimental: Example B1: Diabrotica balteata (Corn Root Worm)
Maize sprouts placed onto an agar layer in 24-well microtiter plates were treated with aqueous test solutions prepared from 10′000 ppm DMSO stock solutions by spraying. After drying, the plates were infested with L2 larvae (6 to 10 per well). The samples were assessed for mortality and growth inhibition in comparison to untreated samples 4 days after infestation.

[2] = test system: Chilo suppressalis (Striped Rice Stemborer); assay: Example B4: Chilo suppressalis (striped rice stemborer), artificial diet; details: 144 h, application rate 200 ppm, L2 larvae, 6 days after infestation, read-out: control in at least one of the three categories (mortality, anti-feedant or growth inhibition)
Experimental: Example B4: Chilo suppressalis (Striped Rice Stemborer)
24-well microtiter plates with artificial diet were treated with aqueous test solutions prepared from 10′000 ppm DMSO stock solutions by pipetting. After drying, the plates were infested with L2 larvae (6-8 per well). The samples were assessed for mortality, anti-feeding effect, and growth inhibition in comparison to untreated samples 6 days after infestation. Control of Chilo suppressalis by a test sample is given when at least one of the categories mortality, anti-feedant effect, and growth inhibition is higher than the untreated sample.

[3] = test system: Spodoptera littoralis (Egyptian Cotton Leaf Worm); assay: Example B9: Spodoptera littoralis (Egyptian cotton leaf worm), sprayed cotton leaf discs; details: foliar, 72 h, application rate 200 ppm, L1 larvae, 3 days after infestation, read-out: control in at least one of the three categories (mortality, anto-feedant or growth inhibition)
[4] = test system: Plutella xylostella (Diamond Back Moth); assay: Example B5: Plutella xylostella (diamond back moth), artificial diet, 24-well; details: 192 h, application rate 200 ppm, eggs, 8 days after infestation, read-out: control in at least one of the two categories (mortality or growth inhibition)
Experimental: Example B5: Plutella xylostella (Diamond Back Moth)
24-well microtiter plates with artificial diet were treated with aqueous test solutions prepared from 10′000 ppm DMSO stock solutions by pipetting. After drying, Plutella eggs were pipetted through a plastic stencil onto a gel blotting paper and the plate was closed with it. The samples were assessed for mortality and growth inhibition in comparison to untreated samples 8 days after infestation.

CC(NC(=O)c1cc(C(F)(F)F)nc(C2(C#N)CC2)c1)c1nc(Br)nn1-c1ccc(C#N)cn1 (stereo not drawn) [Compound P2, N-[1-[5-bromo-2-(5-cyano-2-pyridyl)-1,2,4-triazol-3-yl]ethyl]-2-(1-cyanocyclopropyl)-6-(trifluoromethyl)pyridine-4-carboxamide]
≥ 80%: percent control (mortality or growth inhibition) at 200 ppm [1] | percent control (mortality, anti-feedant or growth inhibition) at 200 ppm [2] | percent control (mortality, anti-feedant or growth inhibition) at 200 ppm [3] | percent control (mortality or growth inhibition) at 200 ppm [4]

CC(NC(=O)c1cc(C(F)(F)F)cc(C2(C#N)CC2)c1)c1nc(Br)nn1-c1ncc(OCC(F)F)cn1 (stereo not drawn) [Compound P3, N-[1-[5-bromo-2-[5-(2,2-difluoroethoxy)pyrimidin-2-yl]-1,2,4-triazol-3-yl]ethyl]-3-(1-cyanocyclopropyl)-5-(trifluoromethyl)benzamide]
≥ 80%: percent control (mortality or growth inhibition) at 200 ppm [1] | percent control (mortality, anti-feedant or growth inhibition) at 200 ppm [2] | percent control (mortality, anti-feedant or growth inhibition) at 200 ppm [3] | percent control (mortality or growth inhibition) at 200 ppm [4]

CC(NC(=O)c1cc(C(F)(F)F)cc(C(F)(F)C2CC2)c1)c1nc(Br)nn1-c1ncc(OCC(F)(F)F)cn1 (stereo not drawn) [Compound P9, N-[1-[5-bromo-2-[5-(2,2,2-trifluoroethoxy)pyrimidin-2-yl]-1,2,4-triazol-3-yl]ethyl]-3-[cyclopropyl(difluoro)methyl]-5-(trifluoromethyl)benzamide]
≥ 80%: percent control (mortality, anti-feedant or growth inhibition) at 200 ppm [2] | percent control (mortality, anti-feedant or growth inhibition) at 200 ppm [3] | percent control (mortality or growth inhibition) at 200 ppm [4]

CC(NC(=O)c1cc(C(F)(F)F)cc(C2(C#N)CC2)c1)c1nc(Br)nn1-c1ncc(OCC(F)(F)F)cn1 (stereo not drawn) [Compound P10, N-[1-[5-bromo-2-[5-(2,2,2-trifluoroethoxy)pyrimidin-2-yl]-1,2,4-triazol-3-yl]ethyl]-3-(1-cyanocyclopropyl)-5-(trifluoromethyl)benzamide]
≥ 80%: percent control (mortality or growth inhibition) at 200 ppm [1] | percent control (mortality, anti-feedant or growth inhibition) at 200 ppm [2] | percent control (mortality, anti-feedant or growth inhibition) at 200 ppm [3] | percent control (mortality or growth inhibition) at 200 ppm [4]

CC(NC(=O)c1cc(C2CC2C(F)(F)F)cc(C(F)(F)F)c1)c1nc(Br)nn1-c1ncc(OCC(F)F)cn1 (stereo not drawn) [Compound P13, N-[1-[5-bromo-2-[5-(2,2-difluoroethoxy)pyrimidin-2-yl]-1,2,4-triazol-3-yl]ethyl]-3-(trifluoromethyl)-5-[2-(trifluoromethyl)cyclopropyl]benzamide]
≥ 80%: percent control (mortality or growth inhibition) at 200 ppm [1] | percent control (mortality, anti-feedant or growth inhibition) at 200 ppm [2] | percent control (mortality, anti-feedant or growth inhibition) at 200 ppm [3] | percent control (mortality or growth inhibition) at 200 ppm [4]

CC(NC(=O)c1cc(C(F)(F)F)cc(C(F)(F)C2CC2)c1)c1nc(Br)nn1-c1ncc(OCC(F)F)cn1 (stereo not drawn) [Compound P15, N-[1-[5-bromo-2-[5-(2,2-difluoroethoxy)pyrimidin-2-yl]-1,2,4-triazol-3-yl]ethyl]-3-[cyclopropyl(difluoro)methyl]-5-(trifluoromethyl)benzamide]
≥ 80%: percent control (mortality or growth inhibition) at 200 ppm [1] | percent control (mortality, anti-feedant or growth inhibition) at 200 ppm [2] | percent control (mortality, anti-feedant or growth inhibition) at 200 ppm [3] | percent control (mortality or growth inhibition) at 200 ppm [4]

CC(NC(=O)c1cc(C2CC2C(F)(F)F)cc(C(F)(F)F)c1)c1nc(Br)nn1-c1ccc(C#N)cn1 (stereo not drawn) [Compound P16, N-[1-[5-bromo-2-(5-cyano-2-pyridyl)-1,2,4-triazol-3-yl]ethyl]-3-(trifluoromethyl)-5-[2-(trifluoromethyl)cyclopropyl]benzamide]
≥ 80%: percent control (mortality or growth inhibition) at 200 ppm [1] | percent control (mortality, anti-feedant or growth inhibition) at 200 ppm [2] | percent control (mortality, anti-feedant or growth inhibition) at 200 ppm [3] | percent control (mortality or growth inhibition) at 200 ppm [4]

CC(NC(=O)c1cc(C(F)(F)F)cc(S(=O)(=O)C(F)(F)F)c1)c1nc(Br)nn1-c1ccc(C#N)cn1 (stereo not drawn) [Compound P17, N-[1-[5-bromo-2-(5-cyano-2-pyridyl)-1,2,4-triazol-3-yl]ethyl]-3-(trifluoromethyl)-5-(trifluoromethylsulfonyl)benzamide]
≥ 80%: percent control (mortality or growth inhibition) at 200 ppm [1] | percent control (mortality, anti-feedant or growth inhibition) at 200 ppm [2] | percent control (mortality, anti-feedant or growth inhibition) at 200 ppm [3] | percent control (mortality or growth inhibition) at 200 ppm [4]

CC(NC(=O)c1cc(C2CC2)cc(C(F)(F)F)c1)c1nc(Br)nn1-c1ccc(C#N)cn1 (stereo not drawn) [Compound P19, N-[1-[5-bromo-2-(5-cyano-2-pyridyl)-1,2,4-triazol-3-yl]ethyl]-3-cyclopropyl-5-(trifluoromethyl)benzamide]
≥ 80%: percent control (mortality or growth inhibition) at 200 ppm [1] | percent control (mortality, anti-feedant or growth inhibition) at 200 ppm [2] | percent control (mortality, anti-feedant or growth inhibition) at 200 ppm [3] | percent control (mortality or growth inhibition) at 200 ppm [4]

CC(NC(=O)c1cc(C2CC2)nc(C(F)(F)F)c1)c1nc(Br)nn1-c1ccc(C#N)cn1 (stereo not drawn) [Compound P20, N-[1-[5-bromo-2-(5-cyano-2-pyridyl)-1,2,4-triazol-3-yl]ethyl]-2-cyclopropyl-6-(trifluoromethyl)pyridine-4-carboxamide]
≥ 80%: percent control (mortality or growth inhibition) at 200 ppm [1] | percent control (mortality, anti-feedant or growth inhibition) at 200 ppm [2] | percent control (mortality, anti-feedant or growth inhibition) at 200 ppm [3] | percent control (mortality or growth inhibition) at 200 ppm [4]

CC(NC(=O)c1cc(C(F)(F)F)cc(C2(C#N)CC2)c1)c1nc(Br)nn1-c1ccc(OCC(F)(F)F)cn1 (stereo not drawn) [Compound P23, N-[1-[5-bromo-2-[5-(2,2,2-trifluoroethoxy)-2-pyridyl]-1,2,4-triazol-3-yl]ethyl]-3-(1-cyanocyclopropyl)-5-(trifluoromethyl)benzamide]
≥ 80%: percent control (mortality, anti-feedant or growth inhibition) at 200 ppm [2] | percent control (mortality, anti-feedant or growth inhibition) at 200 ppm [3] | percent control (mortality or growth inhibition) at 200 ppm [4]

CC(NC(=O)c1cc(C2CC2)cc(C(F)(F)F)c1)c1nc(Br)nn1-c1ccc(OCC(F)(F)F)cn1 (stereo not drawn) [Compound P28, N-[1-[5-bromo-2-[5-(2,2,2-trifluoroethoxy)-2-pyridyl]-1,2,4-triazol-3-yl]ethyl]-3-cyclopropyl-5-(trifluoromethyl)benzamide]
≥ 80%: percent control (mortality, anti-feedant or growth inhibition) at 200 ppm [2] | percent control (mortality or growth inhibition) at 200 ppm [4]

CC(NC(=O)c1cc(C2CC2(F)F)cc(C(F)(F)F)c1)c1nc(Br)nn1-c1ccc(OCC(F)(F)F)cn1 (stereo not drawn) [Compound P29, N-[1-[5-bromo-2-[5-(2,2,2-trifluoroethoxy)-2-pyridyl]-1,2,4-triazol-3-yl]ethyl]-3-(2,2-difluorocyclopropyl)-5-(trifluoromethyl)benzamide]
≥ 80%: percent control (mortality, anti-feedant or growth inhibition) at 200 ppm [2] | percent control (mortality or growth inhibition) at 200 ppm [4]

CC(NC(=O)c1cc(C(F)(F)F)cc(C(C)(C)C#N)c1)c1nc(Br)nn1-c1ccc(OCC(F)(F)F)cn1 (stereo not drawn) [Compound P41, N-[1-[5-bromo-2-[5-(2,2,2-trifluoroethoxy)-2-pyridyl]-1,2,4-triazol-3-yl]ethyl]-3-(1-cyano-1-methyl-ethyl)-5-(trifluoromethyl)benzamide]
≥ 80%: percent control (mortality, anti-feedant or growth inhibition) at 200 ppm [2] | percent control (mortality or growth inhibition) at 200 ppm [4]
